# Assay results from US20100298141A1, “SUBSTITUTED PYRIDINE N-OXIDE HERBICIDES” (E. I. DU PONT DE NEMOURS AND COMPANY, priority 2007, published 2010).
# Experiments:
# redroot pigweed = experiment: Test A pre-/postemergence greenhouse test; type: in vivo, Amaranthus retroflexus; settings: for Plant response rating, Pigweed: 0 to 100 scale where 0 is no effect and 100 is complete control; for Pigweed plant response rating: 0 to 100 scale
# Method in brief: (§1)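 Herbicidal effect is a visual injury score given about ten days post-treatment by comparison with untreated controls. Preemergence plots received a directed spray onto sown loam–sand soil; postemergence plants, at the one- to two-leaf stage and 2–10 cm tall, were sprayed at the same time.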
# corn = experiment: Test A pre-/postemergence greenhouse test; type: in vivo, Zea mays; settings: for Plant response rating, Corn: 0 to 100 scale where 0 is no effect and 100 is complete control; for Corn plant response rating: 0 to 100 scale
# Method in brief: as §1
# blackgrass = experiment: Test C pre-/postemergence test; type: in vivo, Alopecurus myosuroides; settings: Postemergence; for Plant response rating, Blackgrass: scale 0 to 100, 0 no effect, 100 complete control
# From the text: (§2) Seeds of plant species selected from blackgrass (Alopecurus myosuroides), downy brome (Bromus tectorum), green foxtail (Setaria viridis), Italian ryegrass (Lolium multiflorum), wheat (Triticum aestivum), wild oat (Avena fatua), catchweed bedstraw (Galium aparine), Russian thistle (Salsola kali), […] (Cynodon dactylon), Surinam grass (Brachiaria decumbens), cocklebur (Xanthium strumarium), corn (Zea mays), crabgrass (Digitaria sanguinalis), woolly cupgrass (Eriochloa villosa), giant foxtail (Setaria faberii), Goosegrass (Eleusin indica), johnsongrass (Sorghum halepense), kochia (Kochia scoparia), lambsquarters (Chenopodium album), morningglory (Ipomoea coccinea), eastern black nightshade (Solanum ptycanthum), yellow nutsedge (Cyperus esculentus), pigweed (Amaranthus retroflexus), common ragweed (Ambrosia elation), soybean (Glycine max), common (oilseed) sunflower (Helianthus annuus), and velvetleaf (Abutilon theophrasti) were planted and treated preemergence with test chemicals formulated in a non-phytotoxic solvent mixture which included a surfactant. At the same time, plants selected from these crop and weed species and also winter barley (Hordeum vulgare), canarygrass (Phalaris minor), and chickweed (Stellaria media) were treated with postemergence applications of some of the test chemicals formulated in the same manner. Plants ranged in height from 2 to 18 cm (1- to 4-leaf stage) for postemergence treatments. […] At time of treatment, test pots were flooded to 3 cm above the soil surface, treated by application of test compounds directly to the paddy water, and then maintained at that water depth for the duration of the test. […] A dash (-) response means no test result.
# wheat = experiment: Test C pre-/postemergence test; type: in vivo, Triticum aestivum; settings: Postemergence; for Plant response rating, Wheat: scale 0 to 100, 0 no effect, 100 complete control
# From the text: as §2
# wild oat = experiment: Test C pre-/postemergence test; type: in vivo, Avena fatua; settings: Postemergence; for Plant response rating, Oat, Wild: scale 0 to 100, 0 no effect, 100 complete control
# From the text: as §2
# bermudagrass = experiment: Test C pre-/postemergence test; type: in vivo, Cynodon dactylon; settings: Postemergence; for Plant response rating, Bermudagrass: scale 0 to 100, 0 no effect, 100 complete control
# From the text: as §2
# Surinam grass = experiment: Test C pre-/postemergence test; type: in vivo, Brachiaria decumbens; settings: Postemergence; for Plant response rating, Surinam Grass: scale 0 to 100, 0 no effect, 100 complete control
# From the text: as §2
# crabgrass = experiment: Test C pre-/postemergence test; type: in vivo, Digitaria sanguinalis; settings: Postemergence; for Plant response rating, Crabgrass, Large: scale 0 to 100, 0 no effect, 100 complete control
# From the text: as §2
# kochia = experiment: Test C pre-/postemergence test; type: in vivo, Kochia scoparia; settings: Postemergence; for Plant response rating, Kochia: scale 0 to 100, 0 no effect, 100 complete control
# From the text: as §2
# pigweed = experiment: Test C pre-/postemergence test; type: in vivo, Amaranthus retroflexus; settings: Postemergence; for Plant response rating, Pigweed: scale 0 to 100, 0 no effect, 100 complete control
# From the text: as §2
# velvetleaf = experiment: Test C pre-/postemergence test; type: in vivo, Abutilon theophrasti; settings: Postemergence; for Plant response rating, Velvetleaf: scale 0 to 100, 0 no effect, 100 complete control
# From the text: as §2
# rice = experiment: Test C flooded paddy test; type: in vivo, Oryza sativa; settings: Flood
# Method in brief: (§3)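 Under a constant 3 cm flood, test compounds went directly into the paddy water. Following 13 to 15 days of greenhouse growth, treated species and controls were compared by eye.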
# duck salad = experiment: Test C flooded paddy test; type: in vivo, Heteranthera limosa; settings: Flood
# Method in brief: as §3
# barnyardgrass = experiment: Test C flooded paddy test; type: in vivo, Echinochloa crus-galli; settings: Flood
# Method in brief: as §3
# [1] = Postemergence, 500 g ai/ha, 0 is no effect, 100 is complete control
# [2] = Preemergence, 125 g ai/ha, 0 no effect, 100 complete control
# [3] = 62 g ai/ha, scale 0 to 100 (0 no effect, 100 complete control)
# [4] = 250 g ai/ha, scale 0 to 100, 0 no effect, 100 complete control, 13 to 15 days
compound,measurement,setting,value
Cn1nc(C(F)(F)F)c(C[S+]([O-])c2cccc[n+]2[O-])c1OCC(F)(F)C(F)(F)F (centres unmarked) [Compound 78],"Plant response rating, Pigweed","redroot pigweed; Postemergence, 125 g ai/ha",50
same,Pigweed plant response rating,redroot pigweed; [1],60
same,Pigweed plant response rating,redroot pigweed; [2],10
same,"Plant response rating, Pigweed","redroot pigweed; Preemergence, 500 g ai/ha",100
same,"Plant response rating, Corn","corn; Postemergence, 125 g ai/ha",20
same,Corn plant response rating,corn; [1],40
same,Corn plant response rating,corn; [2],30
same,"Plant response rating, Corn","corn; Preemergence, 500 g ai/ha",90
same,"Plant response rating (0 to 100), Blackgrass",blackgrass; 31 g ai/ha,0
same,"Plant response rating, Blackgrass",blackgrass; 62 g ai/ha,0
same,"Plant response rating, Blackgrass",blackgrass; 125 g ai/ha,50
same,"Plant response rating, Blackgrass",blackgrass; 250 g ai/ha,100
same,"Plant response rating (0 to 100), Wheat",wheat; 31 g ai/ha,0
same,"Plant response rating (0 to 100), Wheat",wheat; 62 g ai/ha,0
same,"Plant response rating, Wheat",wheat; 125 g ai/ha,10
same,"Plant response rating, Wheat",wheat; 250 g ai/ha,10
same,"Plant response rating (0 to 100), Oat, Wild",wild oat; 31 g ai/ha,0
same,"Plant response rating, Oat, Wild",wild oat; 62 g ai/ha,0
same,"Plant response rating, Oat, Wild",wild oat; 125 g ai/ha,0
same,"Plant response rating, Oat, Wild",wild oat; 250 g ai/ha,0
same,"Plant response rating (0 to 100), Bermudagrass",bermudagrass; 31 g ai/ha,0
same,"Plant response rating, Bermudagrass",bermudagrass; 62 g ai/ha,0
same,"Plant response rating, Bermudagrass",bermudagrass; 125 g ai/ha,0
same,"Plant response rating, Bermudagrass",bermudagrass; 250 g ai/ha,0
same,"Plant response rating (0 to 100), Surinam Grass",Surinam grass; 31 g ai/ha,0
same,"Plant response rating (0 to 100), Surinam Grass",Surinam grass; 62 g ai/ha,0
same,"Plant response rating, Surinam Grass",Surinam grass; 125 g ai/ha,0
same,"Plant response rating, Surinam Grass",Surinam grass; 250 g ai/ha,70
same,"Plant response rating (0 to 100), Crabgrass, Large",crabgrass; 31 g ai/ha,0
same,"Plant response rating, Crabgrass, Large",crabgrass; 62 g ai/ha,0
same,"Plant response rating, Crabgrass, Large",crabgrass; 125 g ai/ha,0
same,"Plant response rating, Crabgrass, Large",crabgrass; 250 g ai/ha,20
same,"Plant response rating (0 to 100), Kochia",kochia; 31 g ai/ha,0
same,"Plant response rating, Kochia",kochia; 62 g ai/ha,0
same,"Plant response rating, Kochia",kochia; 125 g ai/ha,0
same,"Plant response rating, Kochia",kochia; 250 g ai/ha,0
same,"Plant response rating (0 to 100), Pigweed",pigweed; 31 g ai/ha,0
same,"Plant response rating (0 to 100), Pigweed",pigweed; 62 g ai/ha,0
same,"Plant response rating, Pigweed",pigweed; 125 g ai/ha,30
same,"Plant response rating, Pigweed",pigweed; 250 g ai/ha,35
same,"Plant response rating (0 to 100), Velvetleaf",velvetleaf; 31 g ai/ha,0
same,"Plant response rating (0 to 100), Velvetleaf",velvetleaf; 62 g ai/ha,0
same,"Plant response rating, Velvetleaf",velvetleaf; 125 g ai/ha,0
same,"Plant response rating, Velvetleaf",velvetleaf; 250 g ai/ha,20
same,"Plant response rating, Rice",rice; [3],10
same,"Plant response rating, Rice",rice; [4],70
same,"Plant response rating, Ducksalad",duck salad; [3],30
same,"Plant response rating, Ducksalad",duck salad; [4],70
same,"Plant response rating, Barnyardgrass",barnyardgrass; [3],0
same,"Plant response rating, Barnyardgrass",barnyardgrass; [4],50
